What was measured:
Assay type in all cases: cell-based
[1] = test system: U1 cells; assay: U1 assay, compound toxicity by MTS dye reduction; conditions: exp 2
Method: (§1) At assay termination the assay plates were stained with the soluble tetrazolium-based dye MTS (CellTiter® Reagent, Promega) to determined cell viability and quantify compound toxicity. […] At termination of the assay 20 μL of MTS reagent was added per well. The wells were incubated for 4 h at 37° C., 5% CO2. Adhesive plate scalers were used in place of the lids, the sealed plate was inverted several times to mix the soluble formazan product and the plate was read spectrophotometrically at 490 nm with a 650 nm reference wavelength on a Molecular Devices Vmax plate reader.
(§2) U1 and ACH-2 cells were obtained from the AIDS Research and Reference Reagent Program and maintained under standard culture conditions in RPMI 1640 supplemented with 10% fetal bovine serum (heat inactivated), supplemented with 2 mM […], 100U/ml penicillin and 100 μg/ml, streptomycin. U1 cells were derived from the histocytic leukemia cell line U937, and contain a single integrated copy (HIV IIIB) […] a cytokine and/or phorbol inducible provirus. ACH-2 cells are derived from the A3.01 T lymphoblastic cell line, and contain 2 copies of the HIV IIIB provirus, however only one is cytokine and/or phorbol inducible. Cultures were maintained in such a way as to ensure exponential growth of the populations. At the time of the assay, cells were collected by centrifugation and counted by hemacytometer. If cell viability by Trypan Blue dye exclusion was less than 70% the assay was terminated. The cells were adjusted to 5×10^4 cells/mL and 100 μL, placed in 96 well plates with 100 μL media containing a final concentration of […] TNFα and the test compound. Cultures were incubated for 3 days and supernatants harvested. Compound toxicity was determined by MTS dye reduction. Virus expression was measured by supernatant reverse transcriptasc activity.

[2] = test system: HeLa CD4 LTR β-gal cells; assay: Cytotoxicity for HeLa CD4 LTR β-gal cells; conditions: initial testing
Method: as §1
This cell line represents one of 3 standard models for performing time of addition assays.

[3] = test system: TNFα induced ACH-2 cells (HIV IIIB provirus); assay: ACH-2 latent infection assay, supernatant reverse transcriptase activity; design: % VC (percent of virus control): unit not given here; conditions: exp 2
Method: as §2
Reverse transcriptase activity was measured in cell-free supernatants. Tritiated thymidine triphosphate (NEN) (TTP) was resuspended in distilled H2O at 5 Ci/mL. Poly rA and oligo dT were prepared as a stock solution which was kept at −20° C. The RT reaction buffer was prepared fresh on a daily basis and consists of 125 μL 1.0 M EGTA, 125 μL dH2O, 110 μL 10% SDS, 50 μL 1.0 M Tris (pH 7.4), 50 μL, 1.0 M DTT, and 40 μL 1.0 M MgCl2. These three solutions were mixed together in a ratio of 2 parts TTP, 1 part poly rA:oligo dT, and 1 part reaction buffer. Ten microliters of this reaction mixture was placed in a round bottom microtiter plate and 15 μL of virus containing supernatant was added and mixed. The plate was incubated at 37° C. in a water bath with a solid support to prevent submersion of the plate and incubated for 60 minutes. Following reaction, the reaction volume was spotted onto pieces of DE81 paper, washed 5 times for 5 minutes each in a 5% sodium phosphate buffer, 2 times for 1 minute each in distilled water, 2 times for 1 minute each in 70% ethanol, and then dried. Opti-Fluor O was added to each sample and incorporated radioactivity was quantitated utilizing a Wallac 1450 Microbetaplus liquid scintillation counter.

Potassium Iodiscorbate [Compound K]
% CC ([1]; 0.00063 μM): 118.9% | TOXICITY VALUES (MTS) MEAN ([1]; 0.00063 μM): 1.546 O. D. | % CC ([1]; 0.002 μM): 119.4% | TOXICITY VALUES (MTS) MEAN ([1]; 0.002 μM): 1.553 O. D. | % CC ([1]; 0.00625 μM): 97.8% | TOXICITY VALUES (MTS) MEAN ([1]; 0.00625 μM): 1.271 O. D. | % CC ([1]; 0.0625 μM): 94.0% | TOXICITY VALUES (MTS) MEAN ([1]; 0.0625 μM): 1.222 O. D. | % CC ([1]; 0.2 μM [c7]): 84.8% | TOXICITY VALUES (MTS) MEAN ([1]; 0.2 μM [c7]): 1.103 O. D. | % CC ([1]; 0.2 μM [c9]): 101.5% | TOXICITY VALUES (MTS) MEAN ([1]; 0.2 μM [c9]): 1.320 O. D. | % CC ([1]; 0.625 μM): 93.4% | TOXICITY VALUES (MTS) MEAN ([1]; 0.625 μM): 1.214 O. D. | % CC ([1]; 2 μM): 89.1% | TOXICITY VALUES (MTS) MEAN ([1]; 2 μM): 1.158 O. D. | % CC ([1]; 6.25 μM): 83.3% | TOXICITY VALUES (MTS) MEAN ([1]; 6.25 μM): 1.083 O. D. | % CC ([1]; 20 μM): 70.3% | TOXICITY VALUES (MTS) MEAN ([1]; 20 μM): 0.913 O. D. | % CC ([1]; 62.5 μM): 80.8% | TOXICITY VALUES (MTS) MEAN ([1]; 62.5 μM): 1.050 O. D. | % CC ([1]; 200 μM): 26.3% | TOXICITY VALUES (MTS) MEAN ([1]; 200 μM): 0.341 O. D. | cytotoxic effects on the HeLa CD4 LTR β-gal cells [2]: no significant cytotoxic effects | % VC (percent of virus control) ([3]; 0.00063 uM): 114.4 | RT ACTIVITY (cpm) MEAN ([3]; 0.00063 uM): 22470 cpm | % VC (percent of virus control) ([3]; 0.002 uM): 98.0 | RT ACTIVITY (cpm) MEAN ([3]; 0.002 uM): 19246 cpm | % VC (percent of virus control) ([3]; 0.00625 uM): 105.2 | RT ACTIVITY (cpm) MEAN ([3]; 0.00625 uM): 20672 cpm | % VC (percent of virus control) ([3]; 0.02 uM): 125.7 | RT ACTIVITY (cpm) MEAN ([3]; 0.02 uM): 24682 cpm | % VC (percent of virus control) ([3]; 0.0625 uM): 119.1 | RT ACTIVITY (cpm) MEAN ([3]; 0.0625 uM): 23403 cpm | % VC (percent of virus control) ([3]; 0.2 uM): 115.0 | RT ACTIVITY (cpm) MEAN ([3]; 0.2 uM): 22593 cpm | % VC (percent of virus control) ([3]; 0.625 uM): 97.7 | RT ACTIVITY (cpm) MEAN ([3]; 0.625 uM): 19189 cpm | % VC (percent of virus control) ([3]; 2 uM): 93.6 | RT ACTIVITY (cpm) MEAN ([3]; 2 uM): 18381 cpm | % VC (percent of virus control) ([3]; 6.25 uM): 32.7 | RT ACTIVITY (cpm) MEAN ([3]; 6.25 uM): 6432 cpm | % VC (percent of virus control) ([3]; 20 uM): 15.3 | RT ACTIVITY (cpm) MEAN ([3]; 20 uM): 3011 cpm | % VC (percent of virus control) ([3]; 62.5 uM): 0.58 | RT ACTIVITY (cpm) MEAN ([3]; 62.5 uM): 113 cpm | % VC (percent of virus control) ([3]; 200 uM): 0.55 | RT ACTIVITY (cpm) MEAN ([3]; 200 uM): 108 cpm
